Test results published in PubChem BioAssay (NCI).
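How tested: cells in 96-well plates exposed to compound for 48 hours at five concentrations. Here, GI50 denotes the concentration required for 50% inhibition of growth. The concentration for full growth arrest is given as TGI.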

What was measured:
Assay in all cases: NCI-60 cell line screen, 48 h
786-0 renal = system: 786-0 renal
A498 renal = system: A498 renal
A549 NSCLC = system: A549 NSCLC
ACHN renal = system: ACHN renal
BT-549 breast = system: BT-549 breast
CAKI-1 renal = system: CAKI-1 renal
CCRF-CEM leukemia = system: CCRF-CEM leukemia
COLO 205 colon = system: COLO 205 colon
DU-145 prostate = system: DU-145 prostate
EKVX NSCLC = system: EKVX NSCLC
HCC-2998 colon = system: HCC-2998 colon
HCT-116 colon = system: HCT-116 colon
HCT-15 colon = system: HCT-15 colon
HL-60(TB) leukemia = system: HL-60(TB) leukemia
HOP-62 NSCLC = system: HOP-62 NSCLC
HOP-92 NSCLC = system: HOP-92 NSCLC
HS 578T breast = system: HS 578T breast
HT29 colon = system: HT29 colon
IGROV1 ovarian = system: IGROV1 ovarian
K-562 leukemia = system: K-562 leukemia
KM12 colon = system: KM12 colon
LOX IMVI melanoma = system: LOX IMVI melanoma
M14 melanoma = system: M14 melanoma
MALME-3M melanoma = system: MALME-3M melanoma
MCF7 breast = system: MCF7 breast
MDA-MB-231 breast = system: MDA-MB-231 breast
MDA-MB-435 = system: MDA-MB-435
MOLT-4 leukemia = system: MOLT-4 leukemia
NCI-H226 lung = system: NCI-H226 lung
NCI-H23 lung = system: NCI-H23 lung
NCI-H460 lung = system: NCI-H460 lung
NCI-H522 lung = system: NCI-H522 lung
NCI/ADR-RES ovarian = system: NCI/ADR-RES ovarian
OVCAR-3 ovarian = system: OVCAR-3 ovarian
OVCAR-4 ovarian = system: OVCAR-4 ovarian
OVCAR-5 ovarian = system: OVCAR-5 ovarian
OVCAR-8 ovarian = system: OVCAR-8 ovarian
PC-3 prostate = system: PC-3 prostate
RPMI-8226 leukemia = system: RPMI-8226 leukemia
RXF 393 renal = system: RXF 393 renal
SF-268 CNS = system: SF-268 CNS
SF-295 CNS = system: SF-295 CNS
SF-539 CNS = system: SF-539 CNS
SK-MEL-2 melanoma = system: SK-MEL-2 melanoma
SK-MEL-28 melanoma = system: SK-MEL-28 melanoma
SK-MEL-5 melanoma = system: SK-MEL-5 melanoma
SK-OV-3 ovarian = system: SK-OV-3 ovarian
SN12C renal = system: SN12C renal
SNB-19 CNS = system: SNB-19 CNS
SNB-75 CNS = system: SNB-75 CNS
SR leukemia = system: SR leukemia
SW-620 colon = system: SW-620 colon
T-47D breast = system: T-47D breast
TK-10 renal = system: TK-10 renal
U251 CNS = system: U251 CNS
UACC-257 melanoma = system: UACC-257 melanoma
UACC-62 melanoma = system: UACC-62 melanoma
UO-31 renal = system: UO-31 renal

## Cn1cc(-c2csc(-c3c[nH]c4ccc(F)cc34)n2)c2cccnc21
786-0 renal
  GI50: 13.9 µM
  TGI: > 68.4 µM
A498 renal
  GI50: 18.6 µM
  TGI: > 100 µM
A549 NSCLC
  GI50: 1.09 µM
  TGI: > 45.4 µM
ACHN renal
  GI50: 8.87 µM
  TGI: > 100 µM
BT-549 breast
  TGI: > 100 µM
CAKI-1 renal
  GI50: 1.42 µM
  TGI: > 60.8 µM
CCRF-CEM leukemia
  GI50: 6.26 µM
  TGI: > 100 µM
COLO 205 colon
  GI50: 1.22 µM
  TGI: > 56.4 µM
DU-145 prostate
  GI50: 14.3 µM
  TGI: > 100 µM
EKVX NSCLC
  GI50: 8.87 µM
  TGI: > 100 µM
HCC-2998 colon
  GI50: 21.9 µM
  TGI: > 100 µM
HCT-116 colon
  GI50: 0.729 µM
  TGI: > 100 µM
HCT-15 colon
  GI50: 0.737 µM
  TGI: > 100 µM
HL-60(TB) leukemia
  GI50: 5.85 µM
  TGI: > 100 µM
HOP-62 NSCLC
  GI50: 3.11 µM
  TGI: 35.2 µM
HOP-92 NSCLC
  GI50: 4.25 µM
  TGI: > 48.9 µM
HS 578T breast
  GI50: > 56.6 µM
  TGI: > 100 µM
HT29 colon
  GI50: 0.355 µM
  TGI: 3.66 µM
IGROV1 ovarian
  GI50: 0.804 µM
  TGI: > 39.9 µM
K-562 leukemia
  GI50: 0.416 µM
  TGI: > 100 µM
KM12 colon
  GI50: 0.704 µM
  TGI: > 100 µM
LOX IMVI melanoma
  GI50: 1.45 µM
  TGI: > 100 µM
M14 melanoma
  GI50: 0.787 µM
  TGI: > 100 µM
MALME-3M melanoma
  GI50: 0.236 µM
  TGI: 8.35 µM
MCF7 breast
  GI50: 1.69 µM
  TGI: > 68.4 µM
MDA-MB-231 breast
  GI50: 5.79 µM
  TGI: > 100 µM
MDA-MB-435
  GI50: 0.194 µM
  TGI: 0.586 µM
MOLT-4 leukemia
  GI50: 10.6 µM
  TGI: > 100 µM
NCI-H226 lung
  GI50: 5.22 µM
  TGI: > 100 µM
NCI-H23 lung
  GI50: 11.9 µM
  TGI: > 100 µM
NCI-H460 lung
  GI50: 0.612 µM
  TGI: > 47.4 µM
NCI-H522 lung
  GI50: 0.463 µM
  TGI: 14.7 µM
NCI/ADR-RES ovarian
  GI50: 0.45 µM
  TGI: > 100 µM
OVCAR-3 ovarian
  GI50: 0.62 µM
  TGI: 17.5 µM
OVCAR-4 ovarian
  GI50: 12.3 µM
  TGI: > 100 µM
OVCAR-5 ovarian
  GI50: > 69.3 µM
  TGI: > 100 µM
OVCAR-8 ovarian
  GI50: 2.99 µM
  TGI: 47.3 µM
PC-3 prostate
  GI50: 6.94 µM
  TGI: > 60.3 µM
RPMI-8226 leukemia
  GI50: > 25.4 µM
  TGI: > 100 µM
RXF 393 renal
  GI50: 5.65 µM
  TGI: > 70.5 µM
SF-268 CNS
  GI50: 7.73 µM
  TGI: > 93.6 µM
SF-295 CNS
  GI50: 0.755 µM
  TGI: 27 µM
SF-539 CNS
  GI50: 5.41 µM
  TGI: > 59.5 µM
SK-MEL-2 melanoma
  GI50: 2.78 µM
  TGI: > 29.5 µM
SK-MEL-28 melanoma
  GI50: 11.4 µM
  TGI: > 100 µM
SK-MEL-5 melanoma
  GI50: 1.27 µM
  TGI: > 45.3 µM
SK-OV-3 ovarian
  GI50: 10.5 µM
  TGI: > 74.8 µM
SN12C renal
  GI50: 10.8 µM
  TGI: > 100 µM
SNB-19 CNS
  GI50: 6.25 µM
  TGI: 65.7 µM
SNB-75 CNS
  GI50: 2.61 µM
  TGI: 40 µM
SR leukemia
  GI50: 0.57 µM
  TGI: > 81.2 µM
SW-620 colon
  GI50: 0.749 µM
  TGI: > 100 µM
T-47D breast
  GI50: 2.33 µM
  TGI: > 73.2 µM
TK-10 renal
  GI50: 5.08 µM
  TGI: 31.6 µM
U251 CNS
  GI50: 1.52 µM
  TGI: 17 µM
UACC-257 melanoma
  GI50: 3.81 µM
  TGI: > 100 µM
UACC-62 melanoma
  GI50: 1.98 µM
  TGI: > 100 µM
UO-31 renal
  GI50: 5.37 µM
  TGI: 32.2 µM
